The values below are quoted from earlier work in patent publication US8916612B2, “Agmatine containing dietary supplements, nutraceuticals, and foods” (priority 2008, dated 2014).

For this data set, the system named is mice, rats, dogs, calves and monkeys. As to conditions: variable dose ranges and regimens; cited from earlier work.

Turning to `N=C(N)NCCCCN` [agmatine], the “Toxic effects during or after oral intake” value is reported as “No toxic effects”.
